Results: patent US20070033677A1, “Plant sHSP gene bidirectional promoter and uses thereof” (National Taiwan University, priority 2005, published 2007)

What was measured:
Oshsp17.3 promoter = assay: Transient expression GUS activity assay, Oshsp17.3 promoter::GUS construct bombarded to rice coleoptiles; type: cell-based, Rice (Oryza sativa L. cv. Tainung No. 67); details: 5 mM Aze, 4 hours treatment; GUS normalized against luciferase internal control; FIG. 3A
Description: (§1) The coleoptile of a etiolated rice seedling was cut from embryonic root and positioned on the middle of a 10-cm Petri dish containing MS salts supplemented with 0.6% (w/v) agarose and 3% (w/v) sucrose. The mixture (in a 1:1 molar ratio) of a test DNA construct and a maize ubiquitin-luciferase internal control construct were coated onto the gold particles as follows: under continuous vortexing, the following were added in order to each […] of 3 mg gold particles (Shen et al., 1996): 5 μL of DNA (1 μg DNA), 10 μL of 2.5 M CaCl2, and 4 μL of 0.1 M spermidine (free-based, tissue-culture grade). Gold microcarriers (1.6-μm particle size, 30 mg) in a microcentrifuge tube were vortexed with […] 70% (v/v) ethanol for 3˜5 minutes and kept till precipitation for about 15 minutes. Then, after centrifuging for 5 seconds, the supernatant was discarded and washed three times with 1 ml of sterile de-ionized water. The gold particles were resuspended in 500 μL 50% (w/v) glycerol, and then dispensed in 50-μL aliquots (3 mg/50 μL) kept in −20° C. The gold particles coated with DNA were pelleted in an bench-top Eppendorf centrifuge at maximum speed for 5 seconds, discarded the supernatant, washed once with 70% (v/v) ethanol following by absolute ethanol, and resuspended in 20 μL absolute ethanol. […]

Oshsp18.0 promoter = assay: Transient expression GUS activity assay, Oshsp18.0 promoter::GUS construct bombarded to rice coleoptiles; type: cell-based, Rice (Oryza sativa L. cv. Tainung No. 67); details: 5 mM Aze, 4 hours treatment; GUS normalized against luciferase internal control; FIG. 3A
Description: as §1

[1] = system: bidirectional promoter of SEQ ID NO:5; details: 5% ethanol treatment; control coleoptiles under 28° C.; FIG. 3B
Description: as §1

Row | SMILES | induction of promoter (normalized GUS activity) (Oshsp17.3 promoter) | induction of promoter (normalized GUS activity) (Oshsp18.0 promoter) | expression of reporter gene (GUS staining) [1]
1 | O=C(O)C1CCN1 (stereo not drawn) [Aze] | at least 7 fold | at least 7 fold | –
2 | CCO [ethanol] | – | – | much more amount of reporter gene
